The results in this text go back to PubChem BioAssay (NCI).

Each structure is given as a SMILES string. Values joined by “and” are separate entries in the source; they are usually repeats but may differ in a detail not shown here. Equal values may be shown once.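 Test compounds were applied to cells in 96-well plates for 48 hours at 5 doses. GI50 marks 50% less growth. TGI is the concentration that stops growth completely.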

The subject of the first assay is UACC-257 melanoma. The assay is described as follows: inhibition of tumour cell growth, NCI panel, 48 h.
`CC(=O)OCC1OC(n2cc([N+](=O)[O-])c(=O)[nH]c2=O)C(OC(C)=O)C(OC(C)=O)C1OC(C)=O` (stereo not given): the TGI is > 100 µM.

For the compound `O=C(O)CCC(NC(=S)S)C(=O)O.[Na+].[Zn+2]` (stereo not given), the GI50 was > 50 µM and the TGI is > 50 µM.

As for `NC(=O)c1cccc(Nc2nccc(Nc3cccc(F)c3)n2)c1`, the GI50 is 12.2 µM and the TGI was > 25 µM.

For `CCN(CC)CCNC(=O)c1c(C)[nH]c(/C=C2\C(=O)Nc3ccc(F)cc32)c1C`, the GI50 is > 10 µM and 2.49 µM and 3.24 µM; the TGI is > 10 µM and 5.21 µM and 8.69 µM.

Turning to `O=c1ncccn1C1C=C(CO)C(O)C1O` (stereo not given), the TGI is > 50 µM.

Regarding `CCOC1Oc2ccccc2-c2oc(=O)c(Sc3ccc(C)cc3)cc21` (stereo not given), the GI50 was 11.8 µM and the TGI stood at 45.8 µM.

As to `C[C@H](Cn1ncnn1)Nc1ncc2cc(Oc3ccc(F)cc3F)c(=O)n(C)c2n1`, the GI50 was > 25 µM and the TGI was > 25 µM.

The next assay has as its system MALME-3M melanoma. The assay can be described thus: inhibition of tumour cell growth, NCI panel, 48 h.
`CC(=O)OCC1OC(n2cc([N+](=O)[O-])c(=O)[nH]c2=O)C(OC(C)=O)C(OC(C)=O)C1OC(C)=O` (stereo not given): the TGI was > 100 µM.

`O=C(O)CCC(NC(=S)S)C(=O)O.[Na+].[Zn+2]` (stereo not given): the GI50 was > 50 µM and the TGI was > 50 µM.

For the compound `NC(=O)c1cccc(Nc2nccc(Nc3cccc(F)c3)n2)c1`, the GI50 is 10.3 µM and the TGI is > 25 µM.

Take `CCN(CC)CCNC(=O)c1c(C)[nH]c(/C=C2\C(=O)Nc3ccc(F)cc32)c1C`: the GI50 is 1.87 µM and 2.18 µM and 1.16 µM; the TGI is 6.55 µM and 5.1 µM and 2.91 µM.

Consider `O=c1ncccn1C1C=C(CO)C(O)C1O` (stereo not given), for which the TGI was > 50 µM.

`CCOC1Oc2ccccc2-c2oc(=O)c(Sc3ccc(C)cc3)cc21` (stereo not given): the GI50 is 24.6 µM and the TGI worked out at 91.6 µM.

As for `C[C@H](Cn1ncnn1)Nc1ncc2cc(Oc3ccc(F)cc3F)c(=O)n(C)c2n1`, the GI50 was > 25 µM and the TGI is > 25 µM.

Another assay concerns SF-268 CNS. The assay can be described thus: inhibition of tumour cell growth, NCI panel, 48 h.
As to `CC(=O)OCC1OC(n2cc([N+](=O)[O-])c(=O)[nH]c2=O)C(OC(C)=O)C(OC(C)=O)C1OC(C)=O` (stereo not given), the TGI is > 100 µM.

As to `O=C(O)CCC(NC(=S)S)C(=O)O.[Na+].[Zn+2]` (stereo not given), the GI50 is > 50 µM and the TGI was > 50 µM.

`NC(=O)c1cccc(Nc2nccc(Nc3cccc(F)c3)n2)c1`: the GI50 was 11.7 µM and the TGI is > 25 µM.

On to `CCN(CC)CCNC(=O)c1c(C)[nH]c(/C=C2\C(=O)Nc3ccc(F)cc32)c1C`, for which the GI50 was > 10 µM and 2.73 µM and 4.57 µM; the TGI is > 10 µM and 6.09 µM and 16.9 µM.

For the compound `O=c1ncccn1C1C=C(CO)C(O)C1O` (stereo not given), the TGI is > 50 µM.

For `CCOC1Oc2ccccc2-c2oc(=O)c(Sc3ccc(C)cc3)cc21` (stereo not given), the GI50 is 27.9 µM and the TGI turned out to be 75.8 µM.

As to `C[C@H](Cn1ncnn1)Nc1ncc2cc(Oc3ccc(F)cc3F)c(=O)n(C)c2n1`, the GI50 was > 25 µM and the TGI was > 25 µM.

For the next assay, the system named is SK-OV-3 ovarian. The assay can be described thus: inhibition of tumour cell growth, NCI panel, 48 h.
With `CC(=O)OCC1OC(n2cc([N+](=O)[O-])c(=O)[nH]c2=O)C(OC(C)=O)C(OC(C)=O)C1OC(C)=O` (stereo not given), the TGI is > 100 µM.

`O=C(O)CCC(NC(=S)S)C(=O)O.[Na+].[Zn+2]` (stereo not given): the GI50 is > 50 µM and the TGI was > 50 µM.

`NC(=O)c1cccc(Nc2nccc(Nc3cccc(F)c3)n2)c1`: the GI50 was 5.85 µM and the TGI was 17.2 µM.

For the compound `CCN(CC)CCNC(=O)c1c(C)[nH]c(/C=C2\C(=O)Nc3ccc(F)cc32)c1C`, the GI50 is 2.44 µM and 2.26 µM and 3.51 µM; the TGI is > 10 µM and 5.43 µM and 19.6 µM.

`O=c1ncccn1C1C=C(CO)C(O)C1O` (stereo not given): the TGI is > 50 µM.

With `CCOC1Oc2ccccc2-c2oc(=O)c(Sc3ccc(C)cc3)cc21` (stereo not given), the GI50 is 20.5 µM and the TGI was > 100 µM.

Consider `C[C@H](Cn1ncnn1)Nc1ncc2cc(Oc3ccc(F)cc3F)c(=O)n(C)c2n1`, for which the GI50 is > 25 µM and the TGI is > 25 µM.

The next assay concerns NCI-H460 lung. The assay is described as follows: inhibition of tumour cell growth, NCI panel, 48 h.
Turning to `CC(=O)OCC1OC(n2cc([N+](=O)[O-])c(=O)[nH]c2=O)C(OC(C)=O)C(OC(C)=O)C1OC(C)=O` (stereo not given), the TGI was > 100 µM.

On to `O=C(O)CCC(NC(=S)S)C(=O)O.[Na+].[Zn+2]` (stereo not given), for which the GI50 is > 50 µM and the TGI is > 50 µM.

For the compound `NC(=O)c1cccc(Nc2nccc(Nc3cccc(F)c3)n2)c1`, the GI50 was 7 µM and the TGI was > 25 µM.

As for `CCN(CC)CCNC(=O)c1c(C)[nH]c(/C=C2\C(=O)Nc3ccc(F)cc32)c1C`, the GI50 is 2 µM and 2.19 µM; the TGI was > 10 µM and 5.78 µM and 13.1 µM.

`O=c1ncccn1C1C=C(CO)C(O)C1O` (stereo not given): the TGI was > 50 µM.

For the compound `CCOC1Oc2ccccc2-c2oc(=O)c(Sc3ccc(C)cc3)cc21` (stereo not given), the GI50 was 20 µM and the TGI is > 100 µM.

As to `C[C@H](Cn1ncnn1)Nc1ncc2cc(Oc3ccc(F)cc3F)c(=O)n(C)c2n1`, the GI50 is > 25 µM and the TGI was > 25 µM.

The subject of the next assay is HOP-92 NSCLC. The assay can be described thus: inhibition of tumour cell growth, NCI panel, 48 h.
As to `CC(=O)OCC1OC(n2cc([N+](=O)[O-])c(=O)[nH]c2=O)C(OC(C)=O)C(OC(C)=O)C1OC(C)=O` (stereo not given), the TGI is > 100 µM.

For `O=C(O)CCC(NC(=S)S)C(=O)O.[Na+].[Zn+2]` (stereo not given), the GI50 was > 50 µM and the TGI is > 50 µM.

Take `NC(=O)c1cccc(Nc2nccc(Nc3cccc(F)c3)n2)c1`: the GI50 is 2.66 µM and the TGI worked out at 18.1 µM.

Regarding `CCN(CC)CCNC(=O)c1c(C)[nH]c(/C=C2\C(=O)Nc3ccc(F)cc32)c1C`, the GI50 was 0.831 µM and 0.439 µM; the TGI is 9.01 µM and 3.05 µM.

Take `O=c1ncccn1C1C=C(CO)C(O)C1O` (stereo not given): the TGI is > 50 µM.

Regarding `CCOC1Oc2ccccc2-c2oc(=O)c(Sc3ccc(C)cc3)cc21` (stereo not given), the GI50 was 10.8 µM and the TGI was 48.4 µM.

Regarding `C[C@H](Cn1ncnn1)Nc1ncc2cc(Oc3ccc(F)cc3F)c(=O)n(C)c2n1`, the GI50 was 3.96 µM and the TGI is > 25 µM.

Another assay has as its system A549 NSCLC. The assay can be described thus: inhibition of tumour cell growth, NCI panel, 48 h.
Take `CC(=O)OCC1OC(n2cc([N+](=O)[O-])c(=O)[nH]c2=O)C(OC(C)=O)C(OC(C)=O)C1OC(C)=O` (stereo not given): the TGI is > 100 µM.

For `O=C(O)CCC(NC(=S)S)C(=O)O.[Na+].[Zn+2]` (stereo not given), the GI50 was > 50 µM and the TGI was > 50 µM.

Turning to `NC(=O)c1cccc(Nc2nccc(Nc3cccc(F)c3)n2)c1`, the GI50 was 7.45 µM and the TGI was > 25 µM.

For `CCN(CC)CCNC(=O)c1c(C)[nH]c(/C=C2\C(=O)Nc3ccc(F)cc32)c1C`, the GI50 was 5.52 µM and 2.97 µM and 3.85 µM; the TGI is > 10 µM and 6.44 µM and 17.6 µM.

Consider `O=c1ncccn1C1C=C(CO)C(O)C1O` (stereo not given), for which the TGI was > 50 µM.

In the case of `CCOC1Oc2ccccc2-c2oc(=O)c(Sc3ccc(C)cc3)cc21` (stereo not given), the GI50 is 19.3 µM and the TGI turned out to be 59 µM.

In the case of `C[C@H](Cn1ncnn1)Nc1ncc2cc(Oc3ccc(F)cc3F)c(=O)n(C)c2n1`, the GI50 was > 25 µM and the TGI is > 25 µM.

A further assay has as its system HL-60(TB) leukemia. The assay is described as follows: inhibition of tumour cell growth, NCI panel, 48 h.
Consider `CC(=O)OCC1OC(n2cc([N+](=O)[O-])c(=O)[nH]c2=O)C(OC(C)=O)C(OC(C)=O)C1OC(C)=O` (stereo not given), for which the TGI was > 100 µM.

As for `O=C(O)CCC(NC(=S)S)C(=O)O.[Na+].[Zn+2]` (stereo not given), the GI50 was > 50 µM and the TGI was > 50 µM.

As to `NC(=O)c1cccc(Nc2nccc(Nc3cccc(F)c3)n2)c1`, the GI50 was 7.52 µM and the TGI came to 20.5 µM.

Take `CCN(CC)CCNC(=O)c1c(C)[nH]c(/C=C2\C(=O)Nc3ccc(F)cc32)c1C`: the GI50 was 0.353 µM and 2.42 µM and 0.847 µM; the TGI was 4.34 µM and 6.34 µM and 4.13 µM.

In the case of `O=c1ncccn1C1C=C(CO)C(O)C1O` (stereo not given), the TGI was > 50 µM.

Take `CCOC1Oc2ccccc2-c2oc(=O)c(Sc3ccc(C)cc3)cc21` (stereo not given): the GI50 was 8.98 µM and the TGI came to 60.5 µM.

Take `C[C@H](Cn1ncnn1)Nc1ncc2cc(Oc3ccc(F)cc3F)c(=O)n(C)c2n1`: the GI50 was > 25 µM and the TGI was > 25 µM.

The test system of a further assay is KM12 colon. The assay is described as follows: inhibition of tumour cell growth, NCI panel, 48 h.
Consider `CC(=O)OCC1OC(n2cc([N+](=O)[O-])c(=O)[nH]c2=O)C(OC(C)=O)C(OC(C)=O)C1OC(C)=O` (stereo not given), for which the TGI was > 100 µM.

For `O=C(O)CCC(NC(=S)S)C(=O)O.[Na+].[Zn+2]` (stereo not given), the GI50 is > 50 µM and the TGI was > 50 µM.

On to `NC(=O)c1cccc(Nc2nccc(Nc3cccc(F)c3)n2)c1`, for which the GI50 was 7.27 µM and the TGI is > 25 µM.

Consider `CCN(CC)CCNC(=O)c1c(C)[nH]c(/C=C2\C(=O)Nc3ccc(F)cc32)c1C`, for which the GI50 was 0.11 µM and 0.1 µM and 0.0322 µM; the TGI is > 10 µM and 3.03 µM and 5.54 µM.

For `O=c1ncccn1C1C=C(CO)C(O)C1O` (stereo not given), the TGI was > 50 µM.

As for `CCOC1Oc2ccccc2-c2oc(=O)c(Sc3ccc(C)cc3)cc21` (stereo not given), the GI50 was 34.4 µM and the TGI was > 100 µM.

As for `C[C@H](Cn1ncnn1)Nc1ncc2cc(Oc3ccc(F)cc3F)c(=O)n(C)c2n1`, the GI50 was > 25 µM and the TGI was > 25 µM.

Another assay relates to UO-31 renal. The assay can be described thus: inhibition of tumour cell growth, NCI panel, 48 h.
Turning to `CC(=O)OCC1OC(n2cc([N+](=O)[O-])c(=O)[nH]c2=O)C(OC(C)=O)C(OC(C)=O)C1OC(C)=O` (stereo not given), the TGI was > 100 µM.

Take `O=C(O)CCC(NC(=S)S)C(=O)O.[Na+].[Zn+2]` (stereo not given): the GI50 is > 50 µM and the TGI was > 50 µM.

For the compound `NC(=O)c1cccc(Nc2nccc(Nc3cccc(F)c3)n2)c1`, the GI50 was 4.49 µM and the TGI is 22.3 µM.

`CCN(CC)CCNC(=O)c1c(C)[nH]c(/C=C2\C(=O)Nc3ccc(F)cc32)c1C`: the GI50 was 0.629 µM and 1.26 µM and 1.29 µM; the TGI is > 10 µM and 4.59 µM and 8.07 µM.

For `O=c1ncccn1C1C=C(CO)C(O)C1O` (stereo not given), the TGI is > 50 µM.

`CCOC1Oc2ccccc2-c2oc(=O)c(Sc3ccc(C)cc3)cc21` (stereo not given): the GI50 was 16.4 µM and the TGI is > 100 µM.

For the compound `C[C@H](Cn1ncnn1)Nc1ncc2cc(Oc3ccc(F)cc3F)c(=O)n(C)c2n1`, the GI50 is > 25 µM and the TGI is > 25 µM.
